In US20210255193A1, “LYSINE REACTIVE PROBES AND USES THEREOF” (The Scripps Research Institute, priority 2017, published 2021):

Columns and labels:
Assay in all cases: competitive isoTOP-ABPP
Format in all cases: binding
[1] = target: T1, DYNC1H1 Cytoplasmic dynein 1 heavy chain 1 (Homo sapiens, UniProt Q14204); conditions: 50 uM, 231 sol, in vitro; for R value (DMSO/fragment) for probe 1 labeling: Q14204_K1649
T1 construct: isoTOP-ABPP experiments performed in cell lysates (in vitro); endogenous in cells; host or cells: soluble proteome of human cancer cell lines (MDA-MB-231, Ramos, Jurkat)
T1 sequence (Q14204 whole entry, the tested form may be a part): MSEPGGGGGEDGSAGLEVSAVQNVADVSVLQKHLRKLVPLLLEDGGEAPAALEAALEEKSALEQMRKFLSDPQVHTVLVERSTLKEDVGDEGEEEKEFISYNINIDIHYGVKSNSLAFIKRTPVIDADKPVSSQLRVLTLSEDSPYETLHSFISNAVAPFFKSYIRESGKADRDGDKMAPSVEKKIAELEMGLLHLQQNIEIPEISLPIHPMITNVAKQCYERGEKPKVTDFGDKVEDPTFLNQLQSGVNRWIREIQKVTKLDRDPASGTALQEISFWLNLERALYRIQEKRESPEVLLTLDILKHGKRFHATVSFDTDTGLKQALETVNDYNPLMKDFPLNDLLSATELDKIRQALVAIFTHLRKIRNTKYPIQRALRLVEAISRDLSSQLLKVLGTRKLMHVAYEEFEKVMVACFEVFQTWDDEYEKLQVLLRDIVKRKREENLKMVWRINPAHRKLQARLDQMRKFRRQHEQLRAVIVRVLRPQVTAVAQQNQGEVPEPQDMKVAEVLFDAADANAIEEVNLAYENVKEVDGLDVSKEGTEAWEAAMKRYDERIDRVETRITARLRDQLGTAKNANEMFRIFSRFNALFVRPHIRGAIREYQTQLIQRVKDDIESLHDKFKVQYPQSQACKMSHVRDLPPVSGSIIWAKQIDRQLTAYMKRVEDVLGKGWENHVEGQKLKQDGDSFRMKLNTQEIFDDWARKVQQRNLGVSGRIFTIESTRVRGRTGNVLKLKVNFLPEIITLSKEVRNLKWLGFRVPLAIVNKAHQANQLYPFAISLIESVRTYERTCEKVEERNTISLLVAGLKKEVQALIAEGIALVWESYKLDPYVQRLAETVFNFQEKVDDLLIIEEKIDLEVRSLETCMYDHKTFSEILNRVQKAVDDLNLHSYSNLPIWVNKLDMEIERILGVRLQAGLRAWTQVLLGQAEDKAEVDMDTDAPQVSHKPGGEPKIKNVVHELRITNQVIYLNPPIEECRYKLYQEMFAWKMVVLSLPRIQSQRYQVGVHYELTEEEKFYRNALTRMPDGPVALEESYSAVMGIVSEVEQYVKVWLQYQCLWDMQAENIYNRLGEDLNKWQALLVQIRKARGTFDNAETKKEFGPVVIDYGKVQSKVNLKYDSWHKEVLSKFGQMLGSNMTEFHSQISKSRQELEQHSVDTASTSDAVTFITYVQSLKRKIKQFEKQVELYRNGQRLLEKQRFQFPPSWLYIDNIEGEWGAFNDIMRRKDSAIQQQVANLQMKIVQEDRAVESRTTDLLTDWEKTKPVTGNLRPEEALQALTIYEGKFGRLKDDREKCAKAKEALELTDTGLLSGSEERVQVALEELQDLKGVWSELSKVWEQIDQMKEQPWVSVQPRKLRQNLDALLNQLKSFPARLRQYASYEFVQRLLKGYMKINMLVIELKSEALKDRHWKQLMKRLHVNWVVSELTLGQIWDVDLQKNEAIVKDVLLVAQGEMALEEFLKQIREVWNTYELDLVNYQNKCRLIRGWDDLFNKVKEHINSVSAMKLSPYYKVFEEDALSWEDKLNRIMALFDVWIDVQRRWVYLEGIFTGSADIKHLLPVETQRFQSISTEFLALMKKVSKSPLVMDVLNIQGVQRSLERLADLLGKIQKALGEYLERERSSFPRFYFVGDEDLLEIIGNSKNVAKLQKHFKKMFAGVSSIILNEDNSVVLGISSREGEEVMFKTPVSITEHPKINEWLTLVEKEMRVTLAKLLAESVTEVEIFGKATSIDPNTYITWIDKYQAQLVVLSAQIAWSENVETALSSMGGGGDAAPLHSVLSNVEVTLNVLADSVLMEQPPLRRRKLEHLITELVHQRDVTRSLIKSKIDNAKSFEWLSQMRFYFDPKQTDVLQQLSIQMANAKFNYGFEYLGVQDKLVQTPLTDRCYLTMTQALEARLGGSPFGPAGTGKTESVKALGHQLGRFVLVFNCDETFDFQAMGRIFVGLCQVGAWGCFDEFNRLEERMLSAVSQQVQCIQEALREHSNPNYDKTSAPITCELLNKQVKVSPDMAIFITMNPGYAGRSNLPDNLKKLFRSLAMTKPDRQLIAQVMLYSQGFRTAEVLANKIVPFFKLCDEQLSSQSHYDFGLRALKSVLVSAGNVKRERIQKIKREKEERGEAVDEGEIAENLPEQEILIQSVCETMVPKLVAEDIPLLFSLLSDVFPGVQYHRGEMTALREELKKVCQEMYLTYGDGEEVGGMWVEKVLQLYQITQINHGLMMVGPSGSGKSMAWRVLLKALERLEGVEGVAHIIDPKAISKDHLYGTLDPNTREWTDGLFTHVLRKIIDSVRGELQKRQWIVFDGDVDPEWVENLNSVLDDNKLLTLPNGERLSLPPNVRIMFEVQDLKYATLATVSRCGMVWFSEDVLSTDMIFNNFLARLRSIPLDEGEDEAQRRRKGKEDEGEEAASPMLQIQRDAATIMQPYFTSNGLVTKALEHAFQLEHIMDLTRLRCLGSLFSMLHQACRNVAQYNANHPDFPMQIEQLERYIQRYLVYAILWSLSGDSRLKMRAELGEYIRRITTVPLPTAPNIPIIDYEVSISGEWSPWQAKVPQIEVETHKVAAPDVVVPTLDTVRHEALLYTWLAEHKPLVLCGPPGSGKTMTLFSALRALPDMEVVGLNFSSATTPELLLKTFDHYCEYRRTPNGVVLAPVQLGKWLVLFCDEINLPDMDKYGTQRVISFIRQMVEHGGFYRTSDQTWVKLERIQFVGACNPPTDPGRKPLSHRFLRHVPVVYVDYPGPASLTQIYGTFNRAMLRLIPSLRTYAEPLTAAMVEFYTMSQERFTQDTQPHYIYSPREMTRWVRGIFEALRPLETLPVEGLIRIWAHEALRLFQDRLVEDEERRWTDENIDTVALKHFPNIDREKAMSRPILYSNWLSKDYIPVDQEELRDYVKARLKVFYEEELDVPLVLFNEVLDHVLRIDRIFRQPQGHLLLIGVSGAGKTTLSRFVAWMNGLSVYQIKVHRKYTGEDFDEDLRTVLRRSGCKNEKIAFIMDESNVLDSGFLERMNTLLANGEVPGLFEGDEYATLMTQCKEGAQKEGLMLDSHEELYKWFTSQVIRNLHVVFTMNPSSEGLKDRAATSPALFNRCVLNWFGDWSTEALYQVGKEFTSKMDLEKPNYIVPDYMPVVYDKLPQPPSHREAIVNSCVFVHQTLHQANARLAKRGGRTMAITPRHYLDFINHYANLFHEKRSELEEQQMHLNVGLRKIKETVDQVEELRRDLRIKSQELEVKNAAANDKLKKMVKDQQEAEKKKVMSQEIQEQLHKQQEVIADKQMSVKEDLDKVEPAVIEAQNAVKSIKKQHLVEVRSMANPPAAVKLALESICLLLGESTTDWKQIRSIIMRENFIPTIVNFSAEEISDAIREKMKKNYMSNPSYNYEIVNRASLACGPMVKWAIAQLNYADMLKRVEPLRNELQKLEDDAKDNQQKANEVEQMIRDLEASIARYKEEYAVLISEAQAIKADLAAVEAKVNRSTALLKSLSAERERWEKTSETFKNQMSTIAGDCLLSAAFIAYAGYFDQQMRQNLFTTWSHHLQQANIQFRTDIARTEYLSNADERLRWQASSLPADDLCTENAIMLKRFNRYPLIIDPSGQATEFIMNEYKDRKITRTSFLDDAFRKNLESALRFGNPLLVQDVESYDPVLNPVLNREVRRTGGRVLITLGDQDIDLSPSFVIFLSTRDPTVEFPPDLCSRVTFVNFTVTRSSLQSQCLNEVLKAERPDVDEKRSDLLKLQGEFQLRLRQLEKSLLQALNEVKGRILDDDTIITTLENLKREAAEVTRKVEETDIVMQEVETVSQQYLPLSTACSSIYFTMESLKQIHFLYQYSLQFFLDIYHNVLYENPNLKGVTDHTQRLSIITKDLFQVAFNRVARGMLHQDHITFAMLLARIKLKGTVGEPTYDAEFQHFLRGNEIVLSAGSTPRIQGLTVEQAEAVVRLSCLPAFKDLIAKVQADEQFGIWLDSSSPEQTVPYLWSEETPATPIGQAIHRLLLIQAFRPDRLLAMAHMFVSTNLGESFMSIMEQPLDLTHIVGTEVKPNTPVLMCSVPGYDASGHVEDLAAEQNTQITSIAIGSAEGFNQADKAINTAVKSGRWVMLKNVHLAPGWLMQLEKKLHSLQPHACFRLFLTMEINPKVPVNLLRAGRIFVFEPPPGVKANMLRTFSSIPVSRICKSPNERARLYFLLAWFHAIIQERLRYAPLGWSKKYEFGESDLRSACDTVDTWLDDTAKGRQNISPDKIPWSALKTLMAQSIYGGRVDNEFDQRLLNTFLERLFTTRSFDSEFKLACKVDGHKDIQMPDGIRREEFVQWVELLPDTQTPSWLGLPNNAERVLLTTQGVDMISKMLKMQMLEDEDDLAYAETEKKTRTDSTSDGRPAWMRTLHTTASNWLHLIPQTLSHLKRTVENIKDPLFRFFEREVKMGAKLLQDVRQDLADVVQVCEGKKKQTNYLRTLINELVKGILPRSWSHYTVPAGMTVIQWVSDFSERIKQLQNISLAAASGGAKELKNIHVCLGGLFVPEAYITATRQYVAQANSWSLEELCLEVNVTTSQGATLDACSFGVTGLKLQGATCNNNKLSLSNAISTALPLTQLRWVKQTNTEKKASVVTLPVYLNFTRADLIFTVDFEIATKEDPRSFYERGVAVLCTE
Outline: (§1)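 Cell lysate treated in vitro with fragments (50 μM activated esters, 100 μM guanidinylating agents) or DMSO, labelled 1 h at ambient temperature with 0.1 mM STP-alkyne, CuAAC-tagged with light/heavy TEV tags, analysed by MS. R = DMSO/compound MS1 peak-area ratio; lysines with R≥4 called liganded.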

[2] = target: T2, EEF2 Elongation factor 2 (Homo sapiens, UniProt P13639); conditions: 50 uM, 231 sol, in vitro
T2 construct: isoTOP-ABPP experiments performed in cell lysates (in vitro); endogenous in cells; host or cells: soluble proteome of human cancer cell lines (MDA-MB-231; Ramos and Jurkat also prepared)
Outline: as §1

[3] = target: T3, GBAS Protein NipSnap homolog 2 (Homo sapiens, UniProt O75323); conditions: 50 uM, 231 sol, in vitro; for R value (DMSO/fragment) for probe 1 labeling: O75323_K75
T3 construct: isoTOP-ABPP experiments performed in cell lysates (in vitro); endogenous in cells; host or cells: MDA-MB-231 soluble lysate
T3 sequence (O75323 24-286): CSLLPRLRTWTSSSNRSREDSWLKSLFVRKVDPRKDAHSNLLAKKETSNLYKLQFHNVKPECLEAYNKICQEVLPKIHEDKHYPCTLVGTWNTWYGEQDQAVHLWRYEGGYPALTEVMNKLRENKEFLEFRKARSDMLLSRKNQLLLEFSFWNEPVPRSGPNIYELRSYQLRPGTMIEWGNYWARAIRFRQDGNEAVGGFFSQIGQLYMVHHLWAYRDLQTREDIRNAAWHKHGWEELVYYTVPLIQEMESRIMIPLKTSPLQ
Outline: as §1

[4] = target: T4, GSTT2B Glutathione S-transferase theta-2B (Homo sapiens, UniProt P0CG30); conditions: 50 uM, 231 sol, in vitro; for R value (DMSO/fragment) for probe 1 labeling: P0CG30_K53
T4 construct: isoTOP-ABPP experiments performed in cell lysates (in vitro); endogenous in cells; host or cells: MDA-MB-231 soluble lysate
T4 sequence (P0CG30 1-244): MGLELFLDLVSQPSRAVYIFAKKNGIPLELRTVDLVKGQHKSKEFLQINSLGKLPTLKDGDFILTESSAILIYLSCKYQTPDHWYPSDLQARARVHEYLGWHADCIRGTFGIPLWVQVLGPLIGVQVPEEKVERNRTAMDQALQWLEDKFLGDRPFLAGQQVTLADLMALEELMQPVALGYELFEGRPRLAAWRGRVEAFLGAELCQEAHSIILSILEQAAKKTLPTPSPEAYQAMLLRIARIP
Outline: as §1

[5] = target: T5, PNPO Pyridoxine-5-phosphate oxidase (Homo sapiens, UniProt Q9NVS9); conditions: for blockade of probe 1 labeling of K100: PNPO K100; for R value (DMSO/fragment) for probe 1 labeling: Q9NVS9_K100; for R value (DMSO/fragment) for probe 1 labeling / isoTOP-ABPP reactivity ratio at lysine Q9NVS9_K100: 50 uM, 231 sol, in vitro
T5 construct: endogenous in cells; host or cells: MDA-MB-231 (soluble fraction of lysate)
T5 sequence (Q9NVS9 1-261): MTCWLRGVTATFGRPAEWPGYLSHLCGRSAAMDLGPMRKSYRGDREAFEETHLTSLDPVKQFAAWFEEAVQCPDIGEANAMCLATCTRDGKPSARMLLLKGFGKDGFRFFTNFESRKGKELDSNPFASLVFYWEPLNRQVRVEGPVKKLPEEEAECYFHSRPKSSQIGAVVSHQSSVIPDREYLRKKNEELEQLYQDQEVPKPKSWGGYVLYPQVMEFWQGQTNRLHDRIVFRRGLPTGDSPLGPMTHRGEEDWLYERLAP
Outline: as §1

Structure (SMILES) | R value (DMSO/fragment) for probe 1 labeling [1] | R value (DMSO/fragment) for probe 1 labeling ([2]; P13639_K235) | R value (DMSO/fragment) for probe 1 labeling ([2]; P13639_K318) | R value (DMSO/fragment) for probe 1 labeling [3] | R value (DMSO/fragment) for probe 1 labeling [4] | blockade of probe 1 labeling of K100 [5] | R value (DMSO/fragment) for probe 1 labeling [5] | isoTOP-ABPP reactivity ratio at lysine Q14204_K1649 [1] | isoTOP-ABPP reactivity ratio at lysine P13639_K235 [2] | isoTOP-ABPP reactivity ratio at lysine P13639_K318 [2] | isoTOP-ABPP reactivity ratio at lysine O75323_K75 [3] | isoTOP-ABPP reactivity ratio at lysine P0CG30_K53 [4] | isoTOP-ABPP reactivity ratio at lysine Q9NVS9_K100 [5]
O=C(Oc1c(F)c(F)c(F)c(F)c1F)c1cc(C(F)(F)F)cc(C(F)(F)F)c1 [fragment 21, Pentafluorophenyl 3,5-bis(trifluoromethyl)benzoate] | 1.4 | 1.1 | 1.2 | 0.8 | 0.9 |  | 0.9 |  |  |  |  |  | 
COc1cc(CCC(=O)Oc2c(F)c(F)c(F)c(F)c2F)cc(OC)c1OC [fragment 23, Pentafluorophenyl 3-(3,4,5-trimethoxyphenyl)propanoate] | 1.7 | 1.6 | 1.6 | 1.1 | 0.9 |  | 1.8 |  |  |  |  |  | 
O=C(Oc1c(F)c(F)c(F)c(F)c1F)C1CCN(C(=O)OCc2ccccc2)CC1 [fragment 24, 1-Benzyl 4-(pentafluorophenyl) piperidine-1,4-dicarboxylate] |  |  |  |  |  |  |  | 1.3 | 1.1 | 1.2 | 1.0 | 1.0 | 0.9
O=C(CCc1coc2cc(F)ccc2c1=O)Oc1c(F)c(F)c(F)c(F)c1F [fragment 26, Pentafluorophenyl 3-(7-fluoro-4-oxo-4H-chromen-3-yl)propanoate] |  |  |  |  |  |  |  |  | 1.3 | 1.1 | 4.2 | 1.3 | 1.4

The remaining lines, values ahead:

R value (DMSO/fragment) for probe 1 labeling [1] | R value (DMSO/fragment) for probe 1 labeling ([2]; P13639_K235) | R value (DMSO/fragment) for probe 1 labeling ([2]; P13639_K318) | R value (DMSO/fragment) for probe 1 labeling [3] | R value (DMSO/fragment) for probe 1 labeling [4] | blockade of probe 1 labeling of K100 [5] | R value (DMSO/fragment) for probe 1 labeling [5] | isoTOP-ABPP reactivity ratio at lysine Q14204_K1649 [1] | isoTOP-ABPP reactivity ratio at lysine P13639_K235 [2] | isoTOP-ABPP reactivity ratio at lysine P13639_K318 [2] | isoTOP-ABPP reactivity ratio at lysine O75323_K75 [3] | isoTOP-ABPP reactivity ratio at lysine P0CG30_K53 [4] | isoTOP-ABPP reactivity ratio at lysine Q9NVS9_K100 [5] | Structure (SMILES)
1.0 | 1.2 | 1.1 | 1.0 | 1.0 | fully blocking probe 1 labeling | 20.0 |  |  |  |  |  |  | O=C(CCc1cn(-c2ccccc2)nc1-c1ccccc1)Oc1c(F)c(F)c(F)c(F)c1F [fragment 19, Pentafluorophenyl 3-(1,3-diphenyl-1H-pyrazol-4-yl)propanoate]
1.0 | 1.1 | 1.1 | 0.9 | 1.0 |  | 0.9 |  |  |  |  |  |  | O=C(Oc1c(F)c(F)c(F)c(F)c1F)C(c1ccccc1)c1ccccc1 [fragment 20, Pentafluorophenyl 2,2-diphenylacetate]
1.1 | 2.9 | 5.6 | 1.5 | 1.0 | fully blocking probe 1 labeling | 20.0 |  |  |  |  |  |  | Cn1cc(CC(=O)Oc2c(F)c(F)c(F)c(F)c2F)c2ccccc21 [fragment 22, Pentafluorophenyl 2-(1-methyl-1H-indol-3-yl)acetate]
 |  |  |  |  |  |  | 1.7 | 1.9 | 2.3 | 1.4 | 1.0 | 1.0 | O=C(Oc1c(F)c(F)c(F)c(F)c1F)c1ccc2ccccc2n1 [fragment 25, Pentafluorophenyl quinoline-2-carboxylate]
